Patent publication US20100311714A1, “1H-IMIDAZO[4,5-c]QUINOLINONE COMPOUNDS” (priority 2009, published 2010)
Read-outs that look alike come from different tables or passages of the source.

Experiments:
[1] = biological target: T1, mTOR (Homo sapiens, UniProt P42345); assay: Biochemical assay for m-TOR by TR-FRET
T1 construct: purchased Invitrogen Corporation (Carlsbad/Calif., USA) PV4753
Outline: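 mTOR (0.5 nM) phosphorylates GFP-4EBP1 (400 nM) with 8 μM ATP at rt in 50 mM HEPES pH 7.5, 10 mM MnCl2, 50 mM NaCl, 1 mM EGTA, 1 mM DTT; compounds 0.003–10 μM final. EDTA stop with Tb-anti-p4EBP1[pT46] antibody (0.5 nM); TR-FRET read after 15 min against no-enzyme and vehicle controls.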

[2] = biological target: T2, PI3K delta (Homo sapiens, UniProt O00329); assay: PI3K delta kinase assay (Kinase-Glo luminescence); type: biochemical
T2 construct: for the full-length p110-d subunit are generated and fused by overlapping PCR; His tag (C); made in house; host or cells: baculovirus BV1060; Tn5 (Trichoplusia ni) or TiniPro insect cells
T2 sequence (O00329 with tags, fused parts or gaps limits assumed): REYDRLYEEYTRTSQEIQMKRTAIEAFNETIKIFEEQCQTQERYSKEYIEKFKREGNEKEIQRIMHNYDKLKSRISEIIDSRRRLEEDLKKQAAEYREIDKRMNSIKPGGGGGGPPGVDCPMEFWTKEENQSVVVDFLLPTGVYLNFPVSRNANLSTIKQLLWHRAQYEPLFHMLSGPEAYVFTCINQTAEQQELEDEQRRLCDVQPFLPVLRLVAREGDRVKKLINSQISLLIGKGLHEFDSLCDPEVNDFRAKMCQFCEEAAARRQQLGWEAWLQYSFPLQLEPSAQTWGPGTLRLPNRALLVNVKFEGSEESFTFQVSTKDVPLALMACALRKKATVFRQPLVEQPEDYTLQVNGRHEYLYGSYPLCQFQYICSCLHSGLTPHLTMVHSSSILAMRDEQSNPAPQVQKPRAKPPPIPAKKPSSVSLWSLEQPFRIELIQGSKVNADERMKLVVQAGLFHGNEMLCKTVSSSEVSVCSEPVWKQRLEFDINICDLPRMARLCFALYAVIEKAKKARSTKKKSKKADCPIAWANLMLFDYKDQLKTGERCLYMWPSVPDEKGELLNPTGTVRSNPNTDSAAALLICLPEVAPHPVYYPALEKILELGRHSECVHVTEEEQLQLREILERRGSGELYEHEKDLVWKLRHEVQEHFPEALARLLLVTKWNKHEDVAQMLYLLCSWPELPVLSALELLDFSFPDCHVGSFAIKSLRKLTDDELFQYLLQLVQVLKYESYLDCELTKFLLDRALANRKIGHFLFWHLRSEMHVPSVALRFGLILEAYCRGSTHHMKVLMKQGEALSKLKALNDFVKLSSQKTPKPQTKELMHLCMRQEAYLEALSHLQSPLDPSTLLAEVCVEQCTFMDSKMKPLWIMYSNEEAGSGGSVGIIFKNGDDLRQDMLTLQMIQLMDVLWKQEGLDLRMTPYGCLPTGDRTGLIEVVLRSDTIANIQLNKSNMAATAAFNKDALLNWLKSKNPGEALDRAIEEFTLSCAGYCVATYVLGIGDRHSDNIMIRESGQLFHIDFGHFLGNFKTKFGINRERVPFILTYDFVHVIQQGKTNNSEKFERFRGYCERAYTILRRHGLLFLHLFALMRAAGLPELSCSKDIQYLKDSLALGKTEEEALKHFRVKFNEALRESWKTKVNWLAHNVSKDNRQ
Outline: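 Kinase-Glo ATP-depletion luminescence using 10 nM p85(iSH2)-linker-p110δ full-length His-tag construct from insect cells, with 1 μM ATP and 10 μg/mL phosphatidylinositol in 10 mM Tris pH 7.5, 3 mM MgCl2, 50 mM NaCl, 0.05% CHAPS, 1 mM DTT. 60 min room temperature; IC50 from 4-parameter logistic fit over 8 concentrations.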

T1 sequence (P42345 1360-2549 limits assumed): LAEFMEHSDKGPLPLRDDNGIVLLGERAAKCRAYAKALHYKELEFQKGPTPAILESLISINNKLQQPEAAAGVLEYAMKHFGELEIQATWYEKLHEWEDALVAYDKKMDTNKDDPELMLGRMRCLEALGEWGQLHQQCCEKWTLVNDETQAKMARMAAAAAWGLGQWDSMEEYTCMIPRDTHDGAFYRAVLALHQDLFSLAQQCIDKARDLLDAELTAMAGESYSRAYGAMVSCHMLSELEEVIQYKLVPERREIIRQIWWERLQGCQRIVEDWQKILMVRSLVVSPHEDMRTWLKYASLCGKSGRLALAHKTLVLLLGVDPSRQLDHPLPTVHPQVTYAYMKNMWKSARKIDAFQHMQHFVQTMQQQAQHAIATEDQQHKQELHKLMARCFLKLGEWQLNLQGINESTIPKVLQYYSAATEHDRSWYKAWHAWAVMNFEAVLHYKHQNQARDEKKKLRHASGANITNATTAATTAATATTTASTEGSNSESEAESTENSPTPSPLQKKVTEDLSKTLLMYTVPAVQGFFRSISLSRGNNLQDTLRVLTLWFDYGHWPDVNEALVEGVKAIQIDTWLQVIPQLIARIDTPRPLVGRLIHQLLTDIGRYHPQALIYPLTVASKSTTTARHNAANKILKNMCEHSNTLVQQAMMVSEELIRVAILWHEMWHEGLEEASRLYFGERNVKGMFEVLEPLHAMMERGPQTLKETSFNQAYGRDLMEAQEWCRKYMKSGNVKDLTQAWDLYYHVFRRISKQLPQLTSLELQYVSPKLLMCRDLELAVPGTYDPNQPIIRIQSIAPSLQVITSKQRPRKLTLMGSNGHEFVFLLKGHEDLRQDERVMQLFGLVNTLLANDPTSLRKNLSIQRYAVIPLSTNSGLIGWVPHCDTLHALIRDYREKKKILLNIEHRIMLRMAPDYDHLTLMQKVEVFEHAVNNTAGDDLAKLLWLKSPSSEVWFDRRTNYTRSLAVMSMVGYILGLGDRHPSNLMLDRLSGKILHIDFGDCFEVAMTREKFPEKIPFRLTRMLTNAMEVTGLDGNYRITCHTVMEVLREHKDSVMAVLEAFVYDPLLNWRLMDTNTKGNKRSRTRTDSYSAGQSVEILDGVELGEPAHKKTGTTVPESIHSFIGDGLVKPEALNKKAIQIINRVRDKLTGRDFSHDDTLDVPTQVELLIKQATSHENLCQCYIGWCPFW

IC50 ([1]; read-out: EPK_mTOR/IC50)	IC50 ([2]; read-out: EPK_PI3Kdelta/IC50)	IC50 ([1]; read-out: mTOR/IC50)	IC50 ([2]; read-out: PI3Kdelta/IC50)	SMILES
6 nM	< 3 nM			Cc1nc(C(C)(C)O)ccc1-n1c(=O)n(C)c2cnc3ccc(-c4cnc(N)c(C(F)(F)F)c4)cc3c21 [Example 31.5, 8-(6-Amino-5-trifluoromethyl-pyridin-3-yl)-1-[6-(1-hydroxy-1-methyl-ethyl)-2-methyl-pyridin-3-yl]-3-methyl-1,3-dihydro-imidazo[4,5-c]quinolin-2-one]
		345 nM	834 nM	Cc1cccnc1-n1c(=O)n(C)c2cnc3ccc(-c4ccc(C(N)=O)cc4)cc3c21 [Example 3.3, 4-[3-Methyl-1-(3-methyl-pyridin-2-yl)-2-oxo-2,3-dihydro-1H-imidazo[4,5-c]quinolin-8-yl]-benzamide]
25 nM	25 nM			CCOc1cc(-c2ccc3ncc4c(c3c2)n(-c2ccc(N3CCC3)nc2C)c(=O)n4C)cnc1COC [Example 23.5, 1-(6-Azetidin-1-yl-2-methyl-pyridin-3-yl)-8-(5-ethoxy-6-methoxymethyl-pyridin-3-yl)-3-methyl-1,3-dihydro-imidazo[4,5-c]quinolin-2-one]
15 nM	11 nM			COc1ncc(-c2ccc3ncc4c(c3c2)n(-c2ccc(N3CC[C@H](O)C3)nc2C)c(=O)n4C)c(OC)n1 [Example 32.3, 8-(2,4-Dimethoxy-pyrimidin-5-yl)-1-[6-((S)-3-hydroxy-pyrrolidin-1-yl)-2-methyl-pyridin-3-yl]-3-methyl-1,3-dihydro-imidazo[4,5-c]quinolin-2-one]
		8 nM	5 nM	Cc1nc(F)ccc1-n1c(=O)n(C)c2cnc3ccc(-c4cnc(N)c(C(F)(F)F)c4)cc3c21 [Example 7.1, 8-(6-Amino-5-trifluoromethyl-pyridin-3-yl)-1-(6-fluoro-2-methyl-pyridin-3-yl)-3-methyl-1,3-dihydro-imidazo[4,5-c]quinolin-2-one]
7 nM	16 nM			Cc1nc(N2CCC2)ccc1-n1c(=O)n(C)c2cnc3ccc(-c4cncc(C(C)(C)O)c4)cc3c21 [Example 23.3, 1-(6-Azetidin-1-yl-2-methyl-pyridin-3-yl)-8-[5-(1-hydroxy-1-methyl-ethyl)-pyridin-3-yl]-3-methyl-1,3-dihydro-imidazo[4,5-c]quinolin-2-one]
22 nM	46 nM			CNc1cncc(-c2ccc3ncc4c(c3c2)n(-c2cccnc2C)c(=O)n4C)c1 [Example 2.26, 3-Methyl-8-(5-methylamino-pyridin-3-yl)-1-(2-methyl-pyridin-3-yl)-1,3-dihydro-imidazo[4,5-c]quinolin-2-one]
		600 nM	855 nM	Cc1ncccc1-n1c(=O)n(C)c2cnc3ccc(-c4ccc(OCCCN(C)C)nc4)cc3c21 [Example 2.10, 8-[6-(3-Dimethylamino-propoxy)-pyridin-3-yl]-3-methyl-1-(2-methyl-pyridin-3-yl)-1,3-dihydro-imidazo[4,5-c]quinolin-2-one]
169 nM	406 nM			COc1cc(-c2ccc3ncc4c(c3c2)n(-c2cccnc2C)c(=O)n4C)cnc1C(OC)OC [Example 2.27, 8-(6-Dimethoxymethyl-5-methoxy-pyridin-3-yl)-3-methyl-1-(2-methyl-pyridin-3-yl)-1,3-dihydro-imidazo[4,5-c]quinolin-2-one]
